In patent US8871753B2, “Macrocyclic compounds and their use as kinase inhibitors” (Incyte Corporation, priority 2008, dated 2014):
pIC50: −log10 of the molar value. Where a name gives a salt, the structure may show the parent alone. Read-outs that look alike come from different tables or passages of the source.

Experiments:
Type in all cases: biochemical
TYK2 = TYK2 (Homo sapiens, UniProt P29597); assay: TYK2 kinase inhibition (Table A1)
[1] = target: T1, human JAK3 (a.a. 781-1124) (Homo sapiens, UniProt P52333); assay: In vitro JAK kinase assay (HTRF, phosphorylation of a biotinylated peptide), JAK3
T1 construct: JAK3 (a.a. 781-1124); His tag (N); made in house; host or cells: insect cells (baculovirus)
Outline: (§1)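 Phosphorylation of a biotinylated peptide by the JAK kinase domain, detected by HTRF with Eu-Py20 and SA-APC. ATP was 90 μM for JAK1, 30 μM for JAK2 and 3 μM for JAK3. Reactions ran 1 h at room temperature and were stopped with EDTA, followed by 40 min antibody binding.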

[2] = target: T2, Recombinant Human Anaplastic Lymphoma Kinase (Homo sapiens, UniProt Q9UM73); assay: ALK HTRF kinase assay
T2 construct: purchased Invitrogen, Carlsbad, Calif
Outline: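 Recombinant human ALK phosphorylated a biotinylated synthetic peptide. Phosphotyrosine was detected by TR-FRET between a Eu-labelled anti-phosphotyrosine antibody and streptavidin-allophycocyanin. IC50 values came from fitting signal against inhibitor concentration to a four-parameter logistic equation with variable Hill slope.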

[3] = target: T3, human JAK2 (a.a. 828-1132) (Homo sapiens, UniProt O60674); assay: In vitro JAK kinase assay (HTRF, phosphorylation of a biotinylated peptide), JAK2
T3 construct: JAK2 (a.a. 828-1132); His tag (N); made in house; host or cells: insect cells (baculovirus)
Outline: as §1

[4] = target: T4, human JAK1 (a.a. 837-1142) (Homo sapiens, UniProt P23458); assay: In vitro JAK kinase assay (HTRF, phosphorylation of a biotinylated peptide), JAK1; details: read-out: JAK1 IC50
T4 construct: human JAK1 (a.a. 837-1142); His tag (N); made in house; host or cells: insect cells (baculovirus)
Outline: as §1

[5] = percentage inhibition of the example compound at a concentration of 500 nM or 1 mM (not specified which)
[6] = compound at a concentration of 500 nM or 1 mM (not specified), cells shown as percentage
[7] = Table B1, cells without percent sign
[8] = method AA1 (3 μM ATP) or AA2 (1000 μM ATP), not stated per value
[9] = compound at 500 nM or 1 mM, 90 μM ATP
[10] = method AA1 (30 μM ATP) or AA2 (1000 μM ATP), not stated per value
[11] = method AA1 (90 μM ATP) or AA2 (1000 μM ATP), not stated per value

T4 sequence (P23458 849-1154): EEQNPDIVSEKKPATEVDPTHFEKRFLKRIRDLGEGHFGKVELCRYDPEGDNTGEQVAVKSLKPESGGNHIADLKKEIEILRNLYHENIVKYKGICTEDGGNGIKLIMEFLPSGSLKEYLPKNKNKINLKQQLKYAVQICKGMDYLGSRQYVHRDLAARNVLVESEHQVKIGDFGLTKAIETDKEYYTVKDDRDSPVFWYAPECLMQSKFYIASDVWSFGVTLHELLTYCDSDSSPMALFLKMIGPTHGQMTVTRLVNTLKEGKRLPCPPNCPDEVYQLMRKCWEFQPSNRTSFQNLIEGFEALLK
Sequence of TYK2 (P29597 whole entry): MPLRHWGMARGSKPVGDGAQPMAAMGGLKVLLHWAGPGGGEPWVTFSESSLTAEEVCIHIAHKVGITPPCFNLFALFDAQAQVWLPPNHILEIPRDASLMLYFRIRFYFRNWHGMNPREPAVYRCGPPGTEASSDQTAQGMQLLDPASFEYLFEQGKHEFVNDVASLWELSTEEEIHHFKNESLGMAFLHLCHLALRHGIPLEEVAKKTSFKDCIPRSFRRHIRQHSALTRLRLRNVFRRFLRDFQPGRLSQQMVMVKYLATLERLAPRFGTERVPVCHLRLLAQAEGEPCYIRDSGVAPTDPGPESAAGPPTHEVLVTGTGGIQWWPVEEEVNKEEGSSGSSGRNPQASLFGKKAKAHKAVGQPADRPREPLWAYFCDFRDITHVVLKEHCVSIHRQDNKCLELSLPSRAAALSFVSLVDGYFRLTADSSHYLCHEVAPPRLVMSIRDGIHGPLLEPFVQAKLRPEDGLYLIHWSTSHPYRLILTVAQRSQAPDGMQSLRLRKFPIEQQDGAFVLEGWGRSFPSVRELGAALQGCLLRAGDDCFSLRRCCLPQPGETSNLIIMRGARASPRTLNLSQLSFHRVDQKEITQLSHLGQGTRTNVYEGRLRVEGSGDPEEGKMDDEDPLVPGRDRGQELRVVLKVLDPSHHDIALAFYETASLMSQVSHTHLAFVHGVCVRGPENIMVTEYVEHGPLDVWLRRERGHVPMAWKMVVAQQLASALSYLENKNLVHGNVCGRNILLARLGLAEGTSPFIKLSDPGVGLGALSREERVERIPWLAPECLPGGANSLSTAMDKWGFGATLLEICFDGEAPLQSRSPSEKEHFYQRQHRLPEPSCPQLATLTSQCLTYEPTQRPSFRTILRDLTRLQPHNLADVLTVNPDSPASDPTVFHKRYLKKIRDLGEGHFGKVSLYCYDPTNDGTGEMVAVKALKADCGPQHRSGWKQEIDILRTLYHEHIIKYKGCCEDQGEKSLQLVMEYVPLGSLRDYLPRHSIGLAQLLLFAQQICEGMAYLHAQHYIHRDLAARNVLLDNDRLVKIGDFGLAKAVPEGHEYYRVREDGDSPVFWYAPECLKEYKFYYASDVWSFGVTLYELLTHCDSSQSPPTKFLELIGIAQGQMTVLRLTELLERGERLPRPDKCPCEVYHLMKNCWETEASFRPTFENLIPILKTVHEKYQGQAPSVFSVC
T2 sequence (Q9UM73 19-1620): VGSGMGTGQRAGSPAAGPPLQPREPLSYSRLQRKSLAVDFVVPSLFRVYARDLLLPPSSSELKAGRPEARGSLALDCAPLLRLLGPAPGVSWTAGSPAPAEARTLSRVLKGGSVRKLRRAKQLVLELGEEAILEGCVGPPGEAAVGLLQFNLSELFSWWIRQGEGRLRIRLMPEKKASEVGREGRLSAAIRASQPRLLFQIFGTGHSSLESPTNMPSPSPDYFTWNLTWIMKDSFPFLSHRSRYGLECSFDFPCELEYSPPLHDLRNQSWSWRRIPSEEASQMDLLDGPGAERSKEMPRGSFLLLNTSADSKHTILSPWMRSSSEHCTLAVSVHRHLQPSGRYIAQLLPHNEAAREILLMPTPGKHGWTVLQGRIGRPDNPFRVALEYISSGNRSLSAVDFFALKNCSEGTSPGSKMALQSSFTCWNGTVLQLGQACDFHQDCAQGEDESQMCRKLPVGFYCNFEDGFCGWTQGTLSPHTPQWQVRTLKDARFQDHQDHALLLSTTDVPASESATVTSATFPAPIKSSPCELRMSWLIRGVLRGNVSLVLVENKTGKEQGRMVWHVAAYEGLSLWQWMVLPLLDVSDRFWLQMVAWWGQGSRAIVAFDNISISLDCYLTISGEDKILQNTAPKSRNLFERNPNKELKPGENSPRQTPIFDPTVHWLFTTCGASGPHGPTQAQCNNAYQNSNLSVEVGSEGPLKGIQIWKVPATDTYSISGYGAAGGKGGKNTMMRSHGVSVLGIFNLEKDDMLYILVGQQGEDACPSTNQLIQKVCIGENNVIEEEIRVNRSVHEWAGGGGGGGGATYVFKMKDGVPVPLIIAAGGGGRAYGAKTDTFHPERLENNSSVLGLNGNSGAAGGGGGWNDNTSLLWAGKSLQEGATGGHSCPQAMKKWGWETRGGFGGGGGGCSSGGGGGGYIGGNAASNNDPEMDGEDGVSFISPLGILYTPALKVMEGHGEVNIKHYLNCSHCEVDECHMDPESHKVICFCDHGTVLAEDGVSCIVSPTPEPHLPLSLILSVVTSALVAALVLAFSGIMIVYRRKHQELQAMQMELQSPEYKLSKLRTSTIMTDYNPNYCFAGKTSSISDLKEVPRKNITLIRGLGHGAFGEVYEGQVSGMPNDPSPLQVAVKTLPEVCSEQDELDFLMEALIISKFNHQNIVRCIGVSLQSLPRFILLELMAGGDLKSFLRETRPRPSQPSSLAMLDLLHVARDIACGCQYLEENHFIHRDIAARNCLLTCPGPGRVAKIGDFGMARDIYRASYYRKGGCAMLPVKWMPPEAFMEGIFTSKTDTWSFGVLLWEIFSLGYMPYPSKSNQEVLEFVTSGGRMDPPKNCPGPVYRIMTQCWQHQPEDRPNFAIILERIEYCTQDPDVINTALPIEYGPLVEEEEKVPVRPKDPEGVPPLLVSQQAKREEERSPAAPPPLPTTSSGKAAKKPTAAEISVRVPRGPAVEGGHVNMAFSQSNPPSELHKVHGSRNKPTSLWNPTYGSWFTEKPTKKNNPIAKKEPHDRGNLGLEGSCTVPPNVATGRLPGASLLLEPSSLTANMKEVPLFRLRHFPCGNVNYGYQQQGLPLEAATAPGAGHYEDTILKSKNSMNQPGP
T1 sequence (P52333 781-1124): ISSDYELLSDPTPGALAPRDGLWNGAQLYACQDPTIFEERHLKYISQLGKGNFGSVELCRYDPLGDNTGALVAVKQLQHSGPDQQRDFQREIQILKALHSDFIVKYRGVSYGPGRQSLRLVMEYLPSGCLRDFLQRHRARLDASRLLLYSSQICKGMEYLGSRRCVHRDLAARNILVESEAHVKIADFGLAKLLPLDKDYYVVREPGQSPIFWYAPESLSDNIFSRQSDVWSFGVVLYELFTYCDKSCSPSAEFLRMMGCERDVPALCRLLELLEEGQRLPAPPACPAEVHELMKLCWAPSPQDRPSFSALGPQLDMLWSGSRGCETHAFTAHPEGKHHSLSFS
T3 sequence (O60674 828-1132): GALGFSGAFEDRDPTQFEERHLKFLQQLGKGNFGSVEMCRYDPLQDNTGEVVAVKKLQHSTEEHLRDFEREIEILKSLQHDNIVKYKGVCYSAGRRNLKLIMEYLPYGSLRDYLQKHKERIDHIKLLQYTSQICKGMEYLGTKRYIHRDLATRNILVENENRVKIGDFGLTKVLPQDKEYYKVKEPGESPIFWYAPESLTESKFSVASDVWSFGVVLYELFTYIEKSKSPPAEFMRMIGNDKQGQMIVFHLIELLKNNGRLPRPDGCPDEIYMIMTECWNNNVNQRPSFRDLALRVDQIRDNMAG

With Cc1nc(S(=O)(=O)N2CCC(CN(C)Cc3ccc4cc3CCc3cncc(c3)Nc3ncc(Cl)c(n3)N4)CC2)cn1C [Example B343, 1-[6-Chloro-2,4,8,18,22-pentaazatetracyclo[14.3.1.1(3,7).1(9,13)]docosa-1(20),3(22),4,6,9(21),10,12,16,18-nonaen-12-yl]-N-({1-[(1,2-dimethyl-1H-imidazol-4-yl)sulfonyl]piperidin-4-yl}methyl)-N-methylmethanamine tris(trifluoroacetate)] the pIC50 (TYK2; Table B1) was 6.74, the pIC50 ([1]; Table B1) was < 6.40 and the “ALK % of inhibition at a concentration of 500 nM or 1 mM” value (shortened to “ALK % of inhibition”) [2, 5] was 42%. For the same compound, the pIC50 ([3]; Table B1) was 6.89 and the pIC50 ([4]; Table B1) was 8.42.

With O=C(Nc1ccc2cc1CCc1cncc(c1)Nc1ncc(Cl)c(n1)N2)N1CCN(c2ccccc2F)CC1 [Example B295, N-[6-Chloro-2,4,8,18,22-pentaazatetracyclo[14.3.1.1(3,7).1(9,13)]docosa-1(20),3(22),4,6,9(21),10,12,16,18-nonaen-12-yl]-4-(2-fluorophenyl)piperazine-1-carboxamide tris(trifluoroacetate)] the pIC50 (TYK2; Table B1) was 6.82, the pIC50 ([1]; Table B1) was < 6.70 and the “ALK % of inhibition” value [2, 6] was 50%. For the same compound, the pIC50 ([3]; Table B1) was 6.70 and the pIC50 ([4]; Table B1) was 7.52.

Cc1ccc(C(=O)Nc2ccc3cc2CCc2cccc(c2)Nc2ncc(Cl)c(n2)N3)cc1 [Example B47, N-[6-Chloro-2,4,8,22-tetraazatetracyclo[14.3.1.1(3,7).1(9,13)]docosa-1(20), 3(22),4,6,9(21),10,12,16,18-nonaen-12-yl]-4-methylbenzamide trifluoroacetate] gave a pIC50 (TYK2; Table B1) of 8.49, a pIC50 ([1]; Table B1) of 8.02 and a pIC50 [2, 7] of 6.74. For the same compound, the pIC50 ([3]; Table B1) was 8.82 and the pIC50 ([4]; Table B1) was 9.15.

O=C(Nc1ccc2cc1CCc1cccc(c1)Nc1ncc(Cl)c(n1)N2)C1CCCN(C(=O)NC2CCCC2)C1 (stereo not shown) [Example A62, N(3)-[6-Chloro-2,4,8,22-tetraazatetracyclo[14.3.1.1(3,7).1(9,13)]docosa-1(20),3(22),4,6,9(21),10,12,16,18-nonaen-12-yl]-N(1)-cyclopentylpiperidine-1,3-dicarboxamide trifluoroacetate] was tested, and the pIC50 (TYK2) was 7.92, the pIC50 [1, 8] was 8.04 and the “ALK % of inhibition” value [2, 9] was 26%. For the same compound, the pIC50 [3, 10] was 8.25 and the pIC50 [4, 11] was 8.15.

For O=C(Nc1ccc2cc1CCc1cccc(c1)Nc1ncc(Cl)c(n1)N2)N[C@@H]1CCNC1 [Example B175, N-[6-Chloro-2,4,8,22-tetraazatetracyclo[14.3.1.1(3,7).1(9,13)]docosa-1(20),3(22),4,6,9(21),10,12,16,18-nonaen-12-yl]-N′-[(3R)-pyrrolidin-3-yl]urea dihydrochloride], the pIC50 (TYK2; Table B1) was 7.51, the pIC50 ([1]; Table B1) was 7.16 and the “ALK % of inhibition” value [2, 6] was 18%. For the same compound, the pIC50 ([3]; Table B1) was 7.74 and the pIC50 ([4]; Table B1) was 8.05.

With O=S1(=O)Cc2cccc(c2)Nc2ncc(Cl)c(n2)Nc2cccc(c2)N1 [Example C9, 6-Chloro-15-thia-2,4,8,14,23-pentaazatetracyclo[15.3.1.1(3,7).1(9,13)]tricosa-1(21),3(23),4,6,9(22),10,12,17,19-nonaene 15,15-dioxide trifluoroacetate] the pIC50 (TYK2) was 6.45, the pIC50 [1] was 6.39 and the pIC50 [2] was < 6.00. The pIC50 [3] was 7.03 and the pIC50 [4] was 6.84.

N#Cc1ccccc1S(=O)(=O)N1CCC(CC(=O)Nc2ccc3cc2CCc2cccc(c2)Nc2ncc(Cl)c(n2)N3)CC1 [Example A208, N-[6-Chloro-2,4,8,22-tetraazatetracyclo[14.3.1.1(3,7).1(9,13)]docosa-1(20),3(22),4,6,9(21),10,12,16,18-nonaen-12-yl]-2-{1-[(2-cyanophenyl)sulfonyl]piperidin-4-yl}acetamide trifluoroacetate] was tested, and the pIC50 (TYK2) was 6.82, the pIC50 [1, 8] was < 6.70 and the “ALK % of inhibition” value [2, 9] was 17%. It also gave a pIC50 [3, 10] of 7.39 and a pIC50 [4, 11] of 8.80.

With Oc1ccnc(Nc2ccc3cc2CCc2cccc(c2)Nc2ncc(Cl)c(n2)N3)n1 [Example B277, 2-{[6-Chloro-2,4,8,22-tetraazatetracyclo[14.3.1.1(3,7).1(9,13)]docosa-1(20),3(22),4,6,9(21),10,12,16,18-nonaen-12-yl]amino}pyrimidin-4-ol bis(trifluoroacetate)] the pIC50 (TYK2; Table B1) was 7.21, the pIC50 ([1]; Table B1) was 6.44 and the “ALK % of inhibition” value [2, 6] was 54%. The pIC50 ([3]; Table B1) was 8.23 and the pIC50 ([4]; Table B1) was 8.32.

With CC(=O)N1CCC(CC(=O)Nc2ccc3cc2CCc2cncc(c2)Nc2ncc(Cl)c(n2)N3)CC1 [Example A76, 2-(1-Acetylpiperidin-4-yl)-N-[6-chloro-2,4,8,18,22-pentaazatetracyclo[14.3.1.1(3,7).1(9,13)]docosa-1(20),3(22),4,6,9(21),10,12,16,18-nonaen-12-yl]acetamide bis(trifluoroacetate)] the pIC50 (TYK2) was 8.41, the pIC50 [1, 8] was 6.91 and the “ALK % of inhibition” value [2, 9] was 21%. It also gave a pIC50 [3, 10] of 8.39 and a pIC50 [4, 11] of 8.70.

For O=C(Nc1ccccc1)Nc1ccc2cc1CCc1cccc(c1)Nc1ncc(Cl)c(n1)N2 [Example B83, N-[6-Chloro-2,4,8,22-tetraazatetracyclo[14.3.1.1(3,7).1(9,13)]docosa-1(20), 3(22),4,6,9(21),10,12,16,18-nonaen-12-yl]-N′-phenylurea trifluoroacetate], the pIC50 (TYK2; Table B1) was 8.28, the pIC50 ([1]; Table B1) was 7.57 and the pIC50 [2, 7] was 6.11. The pIC50 ([3]; Table B1) was 8.77 and the pIC50 ([4]; Table B1) was 9.25.

Clc1cnc2nc1Nc1cccc(c1)OCCc1cc(cc(-c3ccccc3)c1)N2 [Example D28, 6-Chloro-19-phenyl-14-oxa-2,4,8,23-tetraazatetracyclo[15.3.1.1(3,7).1(9,13)]tricosa-1(21),3(23),4,6,9(22),10,12,17,19-nonaene trifluoroacetate] gave a pIC50 (TYK2; Table D1) of 7.60, a pIC50 ([1]; Table D1) of 7.28 and a pIC50 ([2]; Table D1, 90 μM ATP) of 6.28. It also gave a pIC50 ([3]; Table D1) of 8.28 and a pIC50 ([4]; Table D1) of 8.21.

For N#Cc1ccc2cc1OCCSc1cccc(c1)Nc1nc(ncc1Cl)N2 [Example D81, 6-Chloro-17-oxa-14-thia-2,4,8,24-tetraazatetracyclo[16.3.1.1(3,7).1(9,13)]tetracosa-1(22),3(24),4,6,9(23),10,12,18,20-nonaene-19-carbonitrile trifluoroacetate], the pIC50 (TYK2; Table D1) was 7.28, the pIC50 ([1]; Table D1) was 6.89 and the pIC50 ([2]; Table D1, 90 μM ATP) was < 5.00. It also gave a pIC50 ([3]; Table D1) of 7.80 and a pIC50 ([4]; Table D1) of 7.92.

In the case of CNC(=O)N1CC[C@H](NC(=O)Nc2ccc3cc2CCc2cccc(c2)Nc2ncc(Cl)c(n2)N3)C1 [Example B169, (3S)-3-[({[6-Chloro-2,4,8,22-tetraazatetracyclo[14.3.1.1(3,7).1(9,13)]docosa-1(20),3(22),4,6,9(21),10,12,16,18-nonaen-12-yl]amino}carbonyl)amino]-N-methylpyrrolidine-1-carboxamide Trifluoracetate], the pIC50 (TYK2; Table B1) was 7.59, the pIC50 ([1]; Table B1) was 7.33 and the “ALK % of inhibition” value [2, 6] was 17%. For the same compound, the pIC50 ([3]; Table B1) was 7.92 and the pIC50 ([4]; Table B1) was 8.48.

With O=C(Nc1ccc(OC(F)(F)F)cc1)Nc1ccc2cc1CCc1cccc(c1)Nc1ncc(Cl)c(n1)N2 [Example B132, N-[6-Chloro-2,4,8,22-tetraazatetracyclo[14.3.1.1(3,7).1(9,13)]docosa-1(20), 3(22),4,6,9(21),10,12,16,18-nonaen-12-yl]-N′-[4-(trifluoromethoxy)phenyl]urea trifluoroacetate] the pIC50 (TYK2; Table B1) was 7.02, the pIC50 ([1]; Table B1) was 6.70 and the “ALK % of inhibition” value [2, 6] was 5%. It also gave a pIC50 ([3]; Table B1) of 7.57 and a pIC50 ([4]; Table B1) of 7.96.

Cn1ccc(C(=O)Nc2ccc3cc2CCc2cccc(c2)Nc2ncc(Cl)c(n2)N3)n1 [Example B31, N-[6-Chloro-2,4,8,22-tetraazatetracyclo[14.3.1.1(3,7).1(9,13)]docosa-1(20), 3(22),4,6,9(21),10,12,16,18-nonaen-12-yl]-1-methyl-1H-pyrazole-3-carboxamide trifluoroacetate] was tested, and the pIC50 (TYK2; Table B1) was 8.00, the pIC50 ([1]; Table B1) was 7.16 and the pIC50 [2, 7] was < 5.00. The pIC50 ([3]; Table B1) was 8.43 and the pIC50 ([4]; Table B1) was 8.27.

With N#Cc1ccc(N2CCC(CC(=O)Nc3ccc4cc3CCc3cncc(c3)Nc3ncc(Cl)c(n3)N4)CC2)nc1 [Example A179, N-[6-Chloro-2,4,8,18,22-pentaazatetracyclo[14.3.1.1(3,7).1(9,13)]docosa-1(20),3(22),4,6,9(21),10,12,16,18-nonaen-12-yl]-2-[1-(5-cyanopyridin-2-yl)piperidin-4-yl]acetamide tris(trifluoroacetate)] the pIC50 (TYK2) was < 6.70, the pIC50 [1, 8] was < 6.70 and the “ALK % of inhibition” value [2, 9] was 43%. The pIC50 [3, 10] was 7.08 and the pIC50 [4, 11] was 7.74.

Clc1cnc2nc1Nc1ccc(Nc3nc4cccnc4o3)c(c1)CCc1cccc(c1)N2 [Example B333, 6-Chloro-N-[1,3]oxazolo[5,4-b]pyridin-2-yl-2,4,8,22-tetraazatetracyclo[14.3.1.1(3,7).1(9,13)]docosa-1(20),3(22),4,6,9(21),10,12,16,18-nonaen-12-amine tris(trifluoroacetate)] was tested, and the pIC50 (TYK2; Table B1) was 8.92, the pIC50 ([1]; Table B1) was 9.00 and the “ALK % of inhibition” value [2, 5] was 55%. For the same compound, the pIC50 ([3]; Table B1) was 7.82 and the pIC50 ([4]; Table B1) was 8.17.
